Test results published in ChEMBL document CHEMBL5346954, “Rational Design of RNA Demethylase FTO Inhibitors with Enhanced Antileukemia Drug-Like Properties” (J Med Chem, 2023).
Values after ≈ are worked out from the molar mass of the structure shown. Active and inactive are the calls of the source. The rule behind the calls is not given here.

Key:
MOLM-13 [1] = experiment: Antiproliferative activity against human MOLM-13 cells incubated for 72 hrs by CCK8 assay; assay type: functional, cell-based; conditions: MOLM-13, 72 h
NB-4 [2] = experiment: Antiproliferative activity against human NB4 cells incubated for 72 hrs by CCK8 assay; assay type: functional, cell-based; conditions: NB-4, 72 h
[3] = target: T1, Alpha-ketoglutarate-dependent dioxygenase FTO (Homo sapiens, UniProt Q9C0B1); experiment: Inhibition of FTO (unknown origin)
Target sequence in this assay (Q9C0B1 whole entry): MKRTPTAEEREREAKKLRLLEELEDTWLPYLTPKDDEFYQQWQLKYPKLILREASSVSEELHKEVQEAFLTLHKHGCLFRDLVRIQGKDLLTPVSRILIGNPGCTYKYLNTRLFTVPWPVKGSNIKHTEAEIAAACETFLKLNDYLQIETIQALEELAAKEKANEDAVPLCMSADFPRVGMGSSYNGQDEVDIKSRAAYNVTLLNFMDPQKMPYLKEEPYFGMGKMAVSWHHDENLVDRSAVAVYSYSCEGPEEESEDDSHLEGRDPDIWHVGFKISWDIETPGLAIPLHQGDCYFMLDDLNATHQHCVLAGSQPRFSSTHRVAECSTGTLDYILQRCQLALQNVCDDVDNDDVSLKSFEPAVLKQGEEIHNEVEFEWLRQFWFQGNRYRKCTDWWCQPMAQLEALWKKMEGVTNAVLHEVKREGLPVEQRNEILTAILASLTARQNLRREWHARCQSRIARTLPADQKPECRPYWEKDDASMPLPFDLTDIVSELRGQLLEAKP

[4] = target: T2, Alpha-ketoglutarate-dependent dioxygenase alkB homolog 3 (Homo sapiens) (UniProt Q96Q83); experiment: Inhibition of ALKBH3 (unknown origin)
T2 sequence (whole entry): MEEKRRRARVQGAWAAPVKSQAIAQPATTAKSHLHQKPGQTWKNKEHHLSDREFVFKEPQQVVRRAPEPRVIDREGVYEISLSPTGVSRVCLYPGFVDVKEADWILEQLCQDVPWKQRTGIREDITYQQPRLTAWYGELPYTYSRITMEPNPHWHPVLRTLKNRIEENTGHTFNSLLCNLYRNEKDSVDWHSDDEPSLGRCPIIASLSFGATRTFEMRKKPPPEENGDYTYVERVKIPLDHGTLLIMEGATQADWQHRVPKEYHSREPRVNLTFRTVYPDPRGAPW

[5] = target: RNA demethylase ALKBH5 (Homo sapiens) (UniProt Q6P6C2); experiment: Inhibition of ALKBH5 (unknown origin)
Chain of RNA demethylase ALKBH5 (Homo sapiens) (Q6P6C2 2-394 limits assumed): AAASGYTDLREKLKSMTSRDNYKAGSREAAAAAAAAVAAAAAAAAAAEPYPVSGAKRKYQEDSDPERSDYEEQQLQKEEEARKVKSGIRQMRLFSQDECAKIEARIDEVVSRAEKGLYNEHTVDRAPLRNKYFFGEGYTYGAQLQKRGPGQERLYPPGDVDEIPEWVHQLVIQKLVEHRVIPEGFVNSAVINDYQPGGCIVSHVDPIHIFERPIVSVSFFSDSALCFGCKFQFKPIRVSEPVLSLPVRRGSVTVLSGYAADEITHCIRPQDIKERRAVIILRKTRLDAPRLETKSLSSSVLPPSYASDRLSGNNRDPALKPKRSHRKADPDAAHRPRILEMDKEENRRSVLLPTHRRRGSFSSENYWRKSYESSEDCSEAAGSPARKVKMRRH

HEL = experiment: Antiproliferative activity against HEL cells incubated for 72 hrs by CCK8 assay; assay type: functional, cell-based; conditions: Homo sapiens
KG-1 = experiment: Antiproliferative activity against human KG-1 cells incubated for 72 hrs by CCK8 assay; assay type: functional, cell-based; conditions: KG-1, 72 h
MV4-11 [6] = experiment: Antiproliferative activity against human MV4-11 cells incubated for 72 hrs by CCK8 assay; assay type: functional, cell-based; conditions: MV4-11, 72 h
THP-1 = experiment: Antiproliferative activity against human THP-1 cells incubated for 72 hrs by CCK8 assay; assay type: functional, cell-based; conditions: THP-1, 72 h
[7] = target: T1, Alpha-ketoglutarate-dependent dioxygenase FTO; experiment: Inhibition of FTO (unknown origin) using (5'-AUUGUCA(M6A)CAGCAGC-3') as substrate incubated for 2 hrs by dot-blot assay
Target sequence in this assay (Q9C0B1 whole entry): as the sequence (Q9C0B1 whole entry) above

[8] = target: T1, Alpha-ketoglutarate-dependent dioxygenase FTO; experiment: Inhibition of FTO (unknown origin) by PAGE based assay
Target sequence in this assay (Q9C0B1 whole entry): as above

NB-4 [9] = experiment: Inhibition of colony formation in human NB4 cells incubated for 14 days by nitroblue tetrazolium chloride staining based assay; assay type: functional, cell-based; conditions: time 14.0 day
MOLM-13 [10] = experiment: Inhibition of colony formation in human MOLM-13 cells incubated for 14 days by nitroblue tetrazolium chloride staining based assay; assay type: functional, cell-based; conditions: time 14.0 day
[11] = target: T1, Alpha-ketoglutarate-dependent dioxygenase FTO; experiment: Inhibition of FTO in human NB4 cells assessed as increase in abundance of m6A on RNA at 5 to 20 uM incubated for 48 hrs by dot-blot assay; assay type: cell-based; conditions: dose 5-20 µM
Target sequence in this assay (Q9C0B1 whole entry, looked up): as the sequence (Q9C0B1 whole entry) above

[12] = target: T1, Alpha-ketoglutarate-dependent dioxygenase FTO; experiment: Inhibition of FTO in human MOLM-13 cells assessed as increase in abundance of m6A on RNA at 5 to 20 uM incubated for 48 hrs by dot-blot assay; assay type: cell-based; conditions: dose 5-20 µM
Target sequence in this assay (Q9C0B1 whole entry, looked up): as the sequence (Q9C0B1 whole entry) above

[13] = target: T1, Alpha-ketoglutarate-dependent dioxygenase FTO; experiment: Inhibition of FTO in human MOLM-13 cells assessed as upregulation RARA RNA level at 5 to 10 uM incubated for 72 hrs by RT-qPCR analysis; assay type: cell-based; conditions: dose 5-10 µM
Target sequence in this assay (Q9C0B1 whole entry, looked up): as the sequence (Q9C0B1 whole entry) above

[14] = target: T1, Alpha-ketoglutarate-dependent dioxygenase FTO; experiment: Inhibition of FTO in human MOLM-13 cells assessed as downregulation Myc RNA level at 5 to 10 uM incubated for 72 hrs by RT-qPCR analysis; assay type: cell-based; conditions: dose 5-10 µM
Target sequence in this assay (Q9C0B1 whole entry, looked up): as the sequence (Q9C0B1 whole entry) above

[15] = target: T1, Alpha-ketoglutarate-dependent dioxygenase FTO; experiment: Inhibition of FTO in human MOLM-13 cells assessed as upregulation RARA protein level at 5 to 10 uM incubated for 48 hrs by Western blot analysis; assay type: cell-based; conditions: dose 5-10 µM
Target sequence in this assay (Q9C0B1 whole entry, looked up): as the sequence (Q9C0B1 whole entry) above

[16] = target: T1, Alpha-ketoglutarate-dependent dioxygenase FTO; experiment: Inhibition of FTO in human MOLM-13 cells assessed as downregulation Myc protein level at 5 to 10 uM incubated for 48 hrs by Western blot analysis; assay type: cell-based; conditions: dose 5-10 µM
Target sequence in this assay (Q9C0B1 whole entry, looked up): as the sequence (Q9C0B1 whole entry) above

[17] = Solubility of the compound in PBS at pH 7.4; assay type: physicochemical
[18] = Permeability of the compound by PAMPA; assay type: ADME; conditions: read-out: permeability
[19] = Metabolic stability in human liver microsomes assessed as half life; assay type: ADME, Microsome
[20] = Metabolic stability in mouse liver microsomes assessed as half life; assay type: ADME, Microsome
[21] = Metabolic stability in human liver microsomes assessed as intrinsic clearance per mg of protein; assay type: ADME, Microsome; conditions: read-out: CLH
[22] = Metabolic stability in mouse liver microsomes assessed as intrinsic clearance per mg of protein; assay type: ADME, Microsome; conditions: read-out: CLH
[23] = Tmax in ICR mouse at 1 mg/kg, iv measured upto 24 hrs by LC-MS/MS analysis; assay type: ADME, organism-based; conditions: in vivo
[24] = Tmax in ICR mouse at 10 mg/kg, po measured upto 24 hrs by LC-MS/MS analysis; assay type: ADME, organism-based; conditions: in vivo
[25] = Cmax in ICR mouse at 1 mg/kg, iv measured upto 24 hrs by LC-MS/MS analysis; assay type: ADME, organism-based; parameters: time < 24 hrs, dose 1 mg/kg, route iv; conditions: in vivo
[26] = Cmax in ICR mouse at 10 mg/kg, po measured upto 24 hrs by LC-MS/MS analysis; assay type: ADME, organism-based; parameters: dose 10 mg/kg, time < 24 hrs, route po; conditions: in vivo
[27] = AUC(0 to t) in ICR mouse at 1 mg/kg, iv measured upto 24 hrs by LC-MS/MS analysis; assay type: ADME, organism-based; parameters: time < 24 hrs, dose 1 mg/kg, route iv; conditions: in vivo
[28] = AUC(0 to t) in ICR mouse at 10 mg/kg, po measured upto 24 hrs by LC-MS/MS analysis; assay type: ADME, organism-based; parameters: dose 10 mg/kg, time < 24 hrs, route po; conditions: in vivo
[29] = AUC(0 to infinity) in ICR mouse at 1 mg/kg, iv measured upto 24 hrs by LC-MS/MS analysis; assay type: ADME, organism-based; parameters: dose 1 mg/kg, time < 24 hrs, route iv; conditions: in vivo
[30] = AUC(0 to infinity) in ICR mouse at 10 mg/kg, po measured upto 24 hrs by LC-MS/MS analysis; assay type: ADME, organism-based; parameters: time < 24 hrs, dose 10 mg/kg, route po; conditions: in vivo
[31] = Oral bioavailability in ICR mouse at 10 mg/kg measured upto 24 hrs by LC-MS/MS analysis; assay type: ADME, organism-based; conditions: in vivo
MV4-11 [32] = experiment: Antitumor activity against human MV4-11 cells xenografted in BALB/c mouse assessed as reduction in tumor volume at 40 mg/kg, ip administered daily for 26 days; assay type: functional, organism-based; conditions: time 26.0 day
MV4-11 [33] = experiment: Antitumor activity against human MV4-11 cells xenografted in BALB/c mouse assessed as reduction in tumor weight at 40 mg/kg, ip administered daily for 26 days; assay type: functional, organism-based; conditions: time 26.0 day
[34] = Toxicity in BALB/c mouse xenografted with human MV4-11 cells assessed as body weight loss at 40 mg/kg, ip administered daily for 26 days; assay type: organism-based; conditions: in vivo, 624 h, time 26 day
Mus musculus = experiment: In vivo inhibition of FTO in human MV4-11 cells xenografted in BALB/c mouse assessed as increase in m6A abundance at 40 mg/kg, ip administered daily for 26 days; assay type: functional, organism-based; conditions: time 26.0 day

SMILES: Cc1noc(C)c1-c1c(F)c(F)c(Nc2cccc(CN3CCCOCC3)c2C(=O)O)c(F)c1F
- IC50 (MOLM-13 [1]): 1500 nM
- IC50 (NB-4 [2]): 1000 nM

SMILES: Cc1noc(C)c1-c1cc(Cl)c(Nc2cccc(CN3CCCOCC3)c2C(=O)O)c(C2CC2)c1
- IC50 [3]: 2300 nM
- inhibition [4]: inactive
- inhibition [5]: inactive
- IC50 (HEL): 10300 nM
- IC50 (KG-1): 4100 nM
- IC50 (MOLM-13 [1]): 1700 nM
- IC50 (MV4-11 [6]): 3400 nM
- IC50 (NB-4 [2]): 1500 nM
- IC50 (THP-1): 6000 nM
- IC50 [7]: 120 nM
- IC50 [8]: 2300 nM
- inhibition (NB-4 [9]): Dose-Dependent Effect
- inhibition (MOLM-13 [10]): Dose-Dependent Effect
- inhibition [11]: Active
- inhibition [12]: Active
- inhibition [13]: Active
- inhibition [14]: Active
- inhibition [15]: Active
- inhibition [16]: Active
- solubility [17]: 7.6 µM (≈ 3.77 µg/mL)
- Papp [18]: 21.4 ×10⁻⁶ cm/s
- half-life [19]: 1.53 h
- half-life [20]: > 3.08 h
- microsomal CLint [21]: 15.1 µL/min/mg
- microsomal CLint [22]: 13.3 µL/min/mg
- Tmax [23]: 2.5 h
- Tmax [24]: 0.5 h
- Cmax [25]: 3700 ng/mL
- Cmax [26]: 7200 ng/mL
- AUC(0-t) at 24 h [27]: 46200 ng·h/mL
- AUC(0-t) at 24 h [28]: 80500 ng·h/mL
- AUC(0-inf) [29]: 55600 ng·h/mL
- AUC(0-inf) [30]: 103000 ng·h/mL
- bioavailability [31]: 18.5%
- Activity (MV4-11 [32]): Active
- Activity (MV4-11 [33]): Active
- Activity [34]: Non-Toxic
- inhibition (Mus musculus): Active

SMILES: Cc1noc(C)c1-c1cc(Cl)c(Nc2cccc(CN3CCCOCC3)c2C(=O)O)c(C(F)(F)F)c1
- IC50 [3]: 6100 nM
- IC50 (MOLM-13 [1]): 2200 nM
- IC50 (NB-4 [2]): 2300 nM
- solubility [17]: 42.6 µM (≈ 22.3 µg/mL)
- Papp [18]: 14.1 ×10⁻⁶ cm/s

SMILES: Cc1n[nH]c(C)c1-c1cc(Cl)c(Nc2cccc(CN3CCCOCC3)c2C(=O)O)c(Cl)c1
- IC50 [3]: 4000 nM
- IC50 (MOLM-13 [1]): 1500 nM
- IC50 (NB-4 [2]): 1000 nM
- solubility [17]: 18.1 µM (≈ 8.86 µg/mL)
- Papp [18]: 4.5 ×10⁻⁶ cm/s

SMILES: Cc1noc(C)c1-c1cc(F)c(Nc2cccc(CN3CCCOCC3)c2C(=O)O)c(F)c1F
- IC50 (MOLM-13 [1]): 1500 nM
- IC50 (NB-4 [2]): 1000 nM

SMILES: CCc1cc(-c2ccncc2)cc(CC)c1Nc1cccc(CN(CCOC)CCOC)c1C(=O)O
- IC50 [3]: 6300 nM

SMILES: CCc1cc(-c2ccncc2)cc(CC)c1Nc1cccc(CN(CC)CCN2CCOCC2)c1C(=O)O
- IC50 [3]: 6800 nM

SMILES: CCc1cc(-c2c(C)noc2C)cc(CC)c1Nc1cccc(CN2CCCOCC2)c1C(=O)O
- IC50 (MOLM-13 [1]): 1500 nM
- IC50 (NB-4 [2]): 1000 nM
